# Test results taken from patent publication US8563267B2, “Lycogen extract, composition thereof and method for the treatment using the same” (Asia-Pacific Beiotech Developing, Inc., priority 2010, dated 2013).
# Tests used:
# [1] = tested on: type I procollagen; test: Type I procollagen level in Hs68 human fibroblasts (Western blotting); assay type: cell-based; conditions: Hs68, without UV treatment, 24 hr; lycopene 0.1, 0.5, 10 μM; lycogen extract 1, 5, 10 μM
# Procedure: The Hs68 human fibroblasts were treated with 20 J/cm^2 of UVA and then with 10, 25 and 50 μM of lycogen extract for 24 hr. The type I procollagen level was analyzed by using Western blotting analysis.
# In addition, under condition without UV treatment, the Hs68 human fibroblasts were treated with 0.1, 0.5 and 10 μM lycopene (extracted from tomato) or 1, 5, 10 μM lycogen extract (extracted from photosynthetic bacteria of the present invention) for 24 hr. The type I procollagen level was analyzed by using Western blotting.
# [2] = test tube studies; cited from earlier work
# [3] = tested on: human lymphocytes; conditions: protection of human lymphocytes from free radical NO2; cited from earlier work
structure (smiles),measurement,setting,value
CC(C)=CCC/C(C)=C/C=C/C(C)=C/C=C/C(C)=C/C=C/C=C(C)/C=C/C=C(C)/C=C/C=C(\C)CCC=C(C)C [lycopene],promotion of collagen proliferation (type I procollagen level),[1],unable to promote collagen proliferation
same,efficiency of singlet-oxygen quenching action relative to vitamin E,[2],100 times
same,NO2 resistant effect relative to β-carotene,[3],at least two times
